Values of other authors as cited in paper PMC8155022 (Scientific Reports, 2021).

Assays:
[1] = tested on: activated CCR6+ T cells from human peripheral blood; parameters: method as in PMID 27905482; details: cited from earlier work
[2] = tested on: patients with moderate to severe plaque psoriasis; parameters: method as in earlier work; details: 4 weeks of treatment, cited from earlier work

COc1nc2ccc([C@@](O)(c3ccc(C)nc3C)c3cnnn3C)cc2c(Cl)c1Cc1ccc(C(F)(F)F)cc1 [JNJ-54271074]
IL-10 production [1]: slightly increased | IL-17A production [1]: greatly reducing

CCS(=O)(=O)c1ccc(CNC(=O)c2cnc3c(c2)CN(C[C@H]2CC[C@H](C(F)(F)F)CC2)[C@H]3C(C)C)nc1 [VTP-43742]
reduction of IL-17A and IL-17F in patient serum [2]: up to 75% | efficacy in patients with moderate to severe plaque psoriasis ([2]; Phase 2a): showed efficacy
